# Target: T1, MMP-2 (Homo sapiens, UniProt P08253)
# T1 construct: purchased Calbiochem-Novabiochem International, Inc
# T1 sequence (P08253 110-660): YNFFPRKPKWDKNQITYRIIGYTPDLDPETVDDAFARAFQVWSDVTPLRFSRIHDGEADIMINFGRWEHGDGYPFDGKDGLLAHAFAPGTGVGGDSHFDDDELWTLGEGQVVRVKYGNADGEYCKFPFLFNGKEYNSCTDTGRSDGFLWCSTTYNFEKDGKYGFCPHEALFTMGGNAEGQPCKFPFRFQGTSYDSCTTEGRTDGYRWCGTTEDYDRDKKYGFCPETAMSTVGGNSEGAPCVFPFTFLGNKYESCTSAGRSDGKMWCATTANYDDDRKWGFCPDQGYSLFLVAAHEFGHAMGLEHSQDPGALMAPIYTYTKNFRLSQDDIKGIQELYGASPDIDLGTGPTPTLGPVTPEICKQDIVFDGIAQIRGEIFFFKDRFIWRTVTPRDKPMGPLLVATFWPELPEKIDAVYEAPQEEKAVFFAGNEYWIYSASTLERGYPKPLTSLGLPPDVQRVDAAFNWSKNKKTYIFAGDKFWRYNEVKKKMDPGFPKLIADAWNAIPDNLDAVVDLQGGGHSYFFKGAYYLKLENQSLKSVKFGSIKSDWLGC
# Assay: Assay for inhibitory activities on MMP-2 (fluorogenic coumarin-labelled peptide substrate)
# Format: biochemical
# Details: MMP-2 purchased from Calbiochem-Novabiochem; substrate MOCAc-Pro-Leu-Gly-Leu-A2Pr(DNP)-Ala-Arg-NH2
# Protocol: MMP-2 was purchased from Calbiochem-Novabiochem International, Inc.
# The enzymatic activity on MMP-2 was analyzed by the method described in “C. Graham Knight, Frances Willenbrock and Gillian Murphy: A novel coumarin-labelled peptide for sensitive continuous assays of the matrix metalloproteinases: FEBS LETT., 296, (1992), 263-266”. The substrate: MOCAc-Pro-Leu-Gly-Leu-A2Pr(DNP)-Ala-Arg-NH2 was purchased from Peptide Institute, Inc., Osaka, Japan.
# The measurement of the inhibitory activities (IC50) was carried out by the following four methods;
# A) Reaction with substrate, enzyme (MMPs) and inhibitor
# B) Reaction with substrate and inhibitor, without enzyme
# C) Reaction with substrate and enzyme (MMPs), without inhibitor
# D) Reaction with substrate only
# IC50 values were calculated by using the following formula and each fluorescence values of above four methods (A to D).
# IC50 means the concentration required to inhibit 50% of the enzyme activity.
row,Structure (SMILES),IC50 [nM]
1,Cc1ccc(-c2nc(-c3ccc(S(=O)(=O)N[C@@H](C(=O)O)C(C)C)cc3)no2)cc1 [Compound A-1],4.62
2,CCCc1ccc(-c2nc(-c3ccc(S(=O)(=O)N[C@H](Cc4ccccc4)C(=O)O)s3)no2)cc1 [Compound B-5],36.1
3,Cc1ccc(-c2nc(-c3ccc(S(=O)(=O)N[C@H](Cc4ccccc4)C(=O)O)s3)no2)s1 [Compound B-6],26.5
4,C[C@@H](NS(=O)(=O)c1ccc(-c2noc(-c3ccc(F)cc3)n2)s1)C(=O)O [Compound B-7],39.7
5,CCc1ccc(-c2nc(-c3ccc(S(=O)(=O)N[C@H](C)C(=O)O)s3)no2)cc1 [Compound B-8],2.9
6,C[C@@H](NS(=O)(=O)c1ccc(-c2noc(-c3cccs3)n2)s1)C(=O)O [Compound B-9],28
7,Cc1ccc(-c2nc(-c3ccc(S(=O)(=O)N[C@H](C)C(=O)O)s3)no2)s1 [Compound B-10],6.29
8,C[C@@H](NS(=O)(=O)c1ccc(-c2noc(-c3ccccn3)n2)s1)C(=O)O [Compound B-11],614
9,O=C(O)[C@@H](Cc1c[nH]c2ccccc12)NS(=O)(=O)c1ccc(-c2noc(-c3ccc(F)cc3)n2)s1 [Compound B-12],29
10,CCc1ccc(-c2nc(-c3ccc(S(=O)(=O)N[C@H](Cc4c[nH]c5ccccc45)C(=O)O)s3)no2)cc1 [Compound B-13],4.08
11,O=C(O)CNS(=O)(=O)c1ccc(-c2noc(-c3ccc(F)cc3)n2)s1 [Compound B-14],224
12,Cc1ccc(-c2nc(-c3ccc(S(=O)(=O)NCC(=O)O)s3)no2)cc1 [Compound B-15],39
13,CCc1ccc(-c2nc(-c3ccc(S(=O)(=O)NCC(=O)O)s3)no2)cc1 [Compound B-16],12.6

# Tested on: not given
# Assay: not given
# Details: not given
row,Structure (SMILES),melting point [°C]
1,Cc1ccc(-c2nc(-c3ccc(S(=O)(=O)N[C@@H](C(=O)O)C(C)C)cc3)no2)cc1 [Compound A-1],208 to 209
